From US4439426A, “Semisynthetic macrolidic antibiotics, intermediate compounds for their preparation and related pharmaceutical compositions containing them” (priority 1981, dated 1984)
In brackets after ≈: the same amount, converted by molar mass.

Assays:
Type in all cases: cell-based
[1] = system: Staphylococcus aureus ATCC 6538 P LRP 39; experiment: Bacteriostatic power in liquid medium (MIC); conditions: Staphylococcus aureus, ATCC6538, read-out: Minimum inhibiting concentration
Method in brief: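 Bacteriostatic, not bactericidal, effect: MIC determined per stock; aerobic and anaerobic species, Gram+ and Gram− alike.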

[2] = system: Corynebacterium diphteriae LRP 24; experiment: Minimum bactericidal concentration (MBC)
Excerpt: (§1) the bacterial power, expressed as the minimum bactericidal power (MBC) against some Gram positive aerobic stocks (table 5).

[3] = system: Staphylococcus aureus ATCC 6538 P LRP 39; experiment: Minimum bactericidal concentration (MBC)
Excerpt: as §1

[4] = system: Streptococcus faecalis subs. zymogenes LRP 61; experiment: Minimum bactericidal concentration (MBC)
Excerpt: as §1

[5] = system: Streptococcus pneumoniae ATCC 6303 LRP 35; experiment: Minimum bactericidal concentration (MBC)
Excerpt: as §1

[6] = system: Streptococcus pyogenes ATCC 8668 LRP 34; experiment: Minimum bactericidal concentration (MBC)
Excerpt: as §1

CC[C@H]1OC(=O)[C@H](C)[C@@H](O[C@H]2C[C@@](C)(OC)[C@@H](O)[C@H](C)O2)[C@H](C)[C@@H](O[C@@H]2O[C@H](C)C[C@H](N(C)C)[C@H]2O)[C@](C)(O)C[C@](C)(F)C(=O)[C@H](C)[C@@H](O)[C@]1(C)O [P-80206, (8S)-8-fluoroerythromycin A] gave an MIC [1] of 0.195 µg/mL (≈ 0.259 µM), an MBC/MIC [2] of 8 and an MBC ([2]; Corynebacterium, LRP24, read-out: Minimum bactericidal concentration (MBC)) of 0.097 µg/mL (≈ 0.129 µM). The MBC/MIC [3] was 16, the MBC ([3]; Staphylococcus aureus, ATCC6538, read-out: Minimum bactericidal concentration (MBC)) was 3.12 µg/mL (≈ 4.15 µM) and the MBC/MIC [4] was 16. For the same compound, the MBC ([4]; Enterococcus faecalis, read-out: Minimum bactericidal concentration (MBC)) was 6.25 µg/mL (≈ 8.31 µM), the MBC/MIC [5] was 4 and the MBC ([5]; Streptococcus pneumoniae, ATCC6303, read-out: Minimum bactericidal concentration (MBC)) was 0.195 µg/mL (≈ 0.259 µM). It also gave an MBC/MIC [6] of 8 and an MBC ([6]; Streptococcus pyogenes, ATCC8668, read-out: Minimum bactericidal concentration (MBC)) of 0.78 µg/mL (≈ 1.04 µM).
